According to patent US20240027453A1, “METHOD FOR DETECTION AND QUANTITATIVE MONITORING OF INFECTIONS WITH HERPESVIRUSES” (The Trustees of Princeton University, priority 2020, published 2024):
Read-outs that look alike come from different tables or passages of the source.

Test system: HCMV
Type: cell-based
Details: DE
Description: In example herpesvirus PRM assay methods shown herein, cell pellets were lysed in 2% SDS, 100 mM NaCl, 0.5 mM EDTA, 50 mM Tris, pH 8.2, and 50 μg of protein was reduced and alkylated with 25 mM TCEP and 50 mM CAM respectively for 20 min at 70° C. Proteins were then precipitated via methanol chloroform precipitation (Wessel & Flugg, Anal Biochem. 138(1):141-143, 1984), resuspended in 50 mM HEPES, pH 8.2 and digested overnight with trypsin (50:1 protein:enzyme w/w ratio). Digested peptides were desalted by SDB-RPS StageTip as previously described (Lum et al., Cell Syst., 7(6):[…], 2018; Greco et al., Methods Mol Biol 1410:39-63, 2016; Federspiel & Cristea, Methods Mol Biol., 1977:115-143, 2019).
Peptides (1.0 μg on column) were analyzed by LC-MS/MS using a Dionex Ultimate 3000 UHPLC coupled online to an EASYSpray ion source and a Q Exactive HF. Peptides were separated on an EASYSpray C18 column (75 μm×25 cm) heated to 50° C. using a linear gradient of 5% B to 32% B over 60 min at a flow rate of 250 nL/min and were ionized at 1.7 kv. Mobile phase A consisted of 0.1% FA in H2O and mobile phase B consisted of 0.1% FA, 2.9% H2O in ACN.
The PRM method was controlled by a peptide inclusion list with retention time windows of 6 min for selected precursor ions.
The PRM assay was developed and analyzed using the open-source software Skyline (Maclean et al., Bioinformatics 26(7):966-968, 2010). Summed area under the curve of 3-4 transitions per peptide was used for quantitation. Targeted peptides were normalized to host protein loading control peptides. Peptide values for each sample were scaled to the average of each peptide across all runs. The average of multiple peptides was used as the inferred value for the protein measurement when more than one peptide was quantified (Federspiel et al., PLoS Biol. 17(9):e3000437. Doi: 10.1371/journal.pbio.3000437). PRM quantitation data were graphed using the Python Seaborn and Matplotlib libraries.
MRC5 primary human fibroblasts (HFs) (ATCC CCL-171) were used as the model system for HSV-1 and HCMV infections and were cultured in complete growth medium (DMEM supplemented with 10% fetal bovine serum and 1% penicillin-streptomycin antibiotics) at 37° C. and 5% CO2. iSLK.219 cells harboring latent KSHV (a gift from Dr. Britt Glaunsinger, University of California, Berkeley) were grown in complete growth medium supplemented with 500 μg/ml hygromycin (ThermoFisher Scientific, 10687010) at 37° C. and 5% CO2. All cells were used for experiments within a maximum of 10 passages.
Wild type HSV-1 strain 17+ (a gift from Beate Sodeik, Hannover Medical School, Hannover, Germany) was propagated as previously described (Diner et al., 2015). Briefly, PO stocks were generated by electroporating pBAC-HSV-1 into U-2 OS cells. […] In a similar manner, wild type HCMV strain AD169 was produced from BAC electroporation into HFs and working stocks were propagated by infecting HFs at a low level. In both cases, cell-associated virus was released by sonication, combined with supernatant virus, then concentrated by ultracentrifugation (20,000 rpm, 2 hours, 4° C. with SW28 swinging bucket rotor [Beckman Coulter]) over a 10% ficoll (HSV-1) or 20% sorbitol (HCMV) cushion. Virus stock titers were determined by plaque assay for HSV-1 or tissue culture infectious dose (TCID50) for HCMV and infections were performed at a multiplicity of infection (MOI) of 3.
12 hours prior to virus infection or reactivation, cells were treated with either the small molecule drug or DMSO/PBS control at an equivalent volume. […] For infection cycles lasting longer than 24 hours, small molecule drugs were re-added to the cell culture medium every 24 hours. Upon collection, cells were rinsed with PBS, scraped into a microcentrifuge tube, pelleted by centrifugation, and rinsed again with PBS.

How did the “UL119/UL118 (P16739) protein, numerical value of heatmap FIG. 6C” value (timepoint 72) turn out when `Nc1ccn(C[C@@H](CO)OCP(=O)(O)O)c(=O)n1` [CDV, cidofovir] was run?
The value was 0.9178.

What about the “UL128 (P16837) protein, numerical value of heatmap FIG. 6C” value (timepoint 72) of the same compound?
The value was 0.3157.

And the “US8 (P09730) protein, numerical value of heatmap FIG. 6C” value (timepoint 72)?
The value was 1.064.

What about the “US9 (P09729) protein, numerical value of heatmap FIG. 6C” value (timepoint 72) of the same compound?
The value was 1.073.

And the “US12 (P09721) protein, numerical value of heatmap FIG. 6C” value (timepoint 72)?
Its value is 1.061.

And the “US13 (P09720) protein, numerical value of heatmap FIG. 6C” value (timepoint 72)?
The value was 1.062.

And the “US14 (P09719) protein, numerical value of heatmap FIG. 6C” value (timepoint 72)?
Its value is 0.8113.

What about the “US18 (P69334) protein, numerical value of heatmap FIG. 6C” value (timepoint 72) of the same compound?
The value was 1.076.

And the “US22 (P09722) protein, numerical value of heatmap FIG. 6C” value (timepoint 72)?
The value was 0.7585.

What about the “US23 (P09701) protein, numerical value of heatmap FIG. 6C” value (timepoint 72) of the same compound?
The value was 0.7114.

What about the “US24 (P09700) protein, numerical value of heatmap FIG. 6C” value (timepoint 72) of the same compound?
Its value is 0.6653.

And the “gB (P06473) protein, numerical value of heatmap FIG. 6C” value (timepoint 72)?
The value was 0.7243.

And the “sp|P09710|IR01_HCMVA (P09710) protein, numerical value of heatmap FIG. 6C” value (timepoint 72)?
Its value is 0.4528.

What about the “CVC2 (P16726) protein, numerical value of heatmap FIG. 6C” value (timepoint 96) of the same compound?
The value was 0.8812.

And the “DBP (P17147) protein, numerical value of heatmap FIG. 6C” value (timepoint 96)?
Its value is 1.215.

And the “HELI (P16736) protein, numerical value of heatmap FIG. 6C” value (timepoint 96)?
Its value is 0.6134.

And the “NEC1 (P16794) protein, numerical value of heatmap FIG. 6C” value (timepoint 96)?
The value was 0.6641.

And the “NEC2 (P16791) protein, numerical value of heatmap FIG. 6C” value (timepoint 96)?
Its value is 0.9731.

What about the “RIR1 (P16782) protein, numerical value of heatmap FIG. 6C” value (timepoint 96) of the same compound?
The value was 0.8478.

And the “TRM1 (P16724) protein, numerical value of heatmap FIG. 6C” value (timepoint 96)?
The value was 0.8347.

What about the “UL4 (P17146) protein, numerical value of heatmap FIG. 6C” value (timepoint 96) of the same compound?
The value was 1.514.

And the “UL26 (P16762) protein, numerical value of heatmap FIG. 6C” value (timepoint 96)?
The value was 1.007.

What about the “UL32 (P08318) protein, numerical value of heatmap FIG. 6C” value (timepoint 96) of the same compound?
Its value is 0.8551.

And the “UL34 (P16812) protein, numerical value of heatmap FIG. 6C” value (timepoint 96)?
Its value is 0.6849.

What about the “UL35 (P16766) protein, numerical value of heatmap FIG. 6C” value (timepoint 96) of the same compound?
The value was 0.6647.

What about the “UL38 (P16779) protein, numerical value of heatmap FIG. 6C” value (timepoint 96) of the same compound?
The value was 0.8749.

What about the “UL44 (P16790) protein, numerical value of heatmap FIG. 6C” value (timepoint 96) of the same compound?
Its value is 0.9654.

And the “UL48 (P16785) protein, numerical value of heatmap FIG. 6C” value (timepoint 96)?
The value was 0.7541.

What about the “UL54 (P08546) protein, numerical value of heatmap FIG. 6C” value (timepoint 96) of the same compound?
Its value is 1.256.

And the “UL71 (P16823) protein, numerical value of heatmap FIG. 6C” value (timepoint 96)?
The value was 1.299.

What about the “UL78 (P16751) protein, numerical value of heatmap FIG. 6C” value (timepoint 96) of the same compound?
The value was 0.7903.

And the “UL84 (P16727) protein, numerical value of heatmap FIG. 6C” value (timepoint 96)?
Its value is 0.7779.

What about the “UL95 (P16801) protein, numerical value of heatmap FIG. 6C” value (timepoint 96) of the same compound?
Its value is 0.5596.

What about the “UL96 (P16787) protein, numerical value of heatmap FIG. 6C” value (timepoint 96) of the same compound?
Its value is 0.7142.

What about the “UL97 (P16788) protein, numerical value of heatmap FIG. 6C” value (timepoint 96) of the same compound?
Its value is 0.8338.

And the “UL98 (P16789) protein, numerical value of heatmap FIG. 6C” value (timepoint 96)?
Its value is 1.012.

And the “UL102 (P16827) protein, numerical value of heatmap FIG. 6C” value (timepoint 96)?
Its value is 0.9332.

What about the “UL104 (P16735) protein, numerical value of heatmap FIG. 6C” value (timepoint 96) of the same compound?
The value was 0.5729.

And the “UL112/UL113 (P17151) protein, numerical value of heatmap FIG. 6C” value (timepoint 96)?
The value was 0.7439.

And the “UL114 (P16769) protein, numerical value of heatmap FIG. 6C” value (timepoint 96)?
The value was 0.9743.

And the “UL119/UL118 (P16739) protein, numerical value of heatmap FIG. 6C” value (timepoint 96)?
Its value is 0.7206.

And the “UL128 (P16837) protein, numerical value of heatmap FIG. 6C” value (timepoint 96)?
Its value is 0.8111.

And the “US8 (P09730) protein, numerical value of heatmap FIG. 6C” value (timepoint 96)?
Its value is 0.7796.

And the “US9 (P09729) protein, numerical value of heatmap FIG. 6C” value (timepoint 96)?
Its value is 0.9079.

What about the “US12 (P09721) protein, numerical value of heatmap FIG. 6C” value (timepoint 96) of the same compound?
The value was 0.6688.

What about the “US13 (P09720) protein, numerical value of heatmap FIG. 6C” value (timepoint 96) of the same compound?
Its value is 0.8741.

And the “US14 (P09719) protein, numerical value of heatmap FIG. 6C” value (timepoint 96)?
Its value is 0.6845.

What about the “US18 (P69334) protein, numerical value of heatmap FIG. 6C” value (timepoint 96) of the same compound?
The value was 1.116.

And the “US22 (P09722) protein, numerical value of heatmap FIG. 6C” value (timepoint 96)?
The value was 1.105.

And the “US23 (P09701) protein, numerical value of heatmap FIG. 6C” value (timepoint 96)?
The value was 0.7852.

What about the “US24 (P09700) protein, numerical value of heatmap FIG. 6C” value (timepoint 96) of the same compound?
Its value is 0.7832.
